The values that follow are results of earlier work, collected in patent publication US20060039891A1, “Antineoplastic-dendritic polymer drug delivery system” (priority 2001, published 2006).

In data set [1] the test system is B16F10 S.C. tumor. The conditions noted are these: at maximum tolerated dose via I.V. administration.
The conditions of data set [2]: I.V. administration.

For the compound `N.N.[Cl][Pt][Cl]` [cisplatin, cis-diamminedichloro platinate (II)], the “response of B16F10 tumor models” value in data set [1] is on record as “resistant”. Further, in data set [2], the maximum tolerated dose result is “about 1 mg/kg”.
